The record followed here is patent publication US20230136297A1, “Methods Of Treating Fabry Disease In Patients Having A Mutation In The GLA Gene” (Amicus Therapeutics, Inc., priority 2020, published 2023).

Changes are numbered by the printed parent chain.

What all share (assay): α-Gal A activity in lysates of transfected HEK-293 cells ± migalastat (HEK assay)
Common to all, as to type: cell-based

Experiment [1] has as its target T1, α-Gal A mutant form D165N (Homo sapiens, UniProt P06280, D165N).
T1 construct: expressed in transfected cells; host or cells: HEK-293
T1 sequence (P06280 32-429 D165N): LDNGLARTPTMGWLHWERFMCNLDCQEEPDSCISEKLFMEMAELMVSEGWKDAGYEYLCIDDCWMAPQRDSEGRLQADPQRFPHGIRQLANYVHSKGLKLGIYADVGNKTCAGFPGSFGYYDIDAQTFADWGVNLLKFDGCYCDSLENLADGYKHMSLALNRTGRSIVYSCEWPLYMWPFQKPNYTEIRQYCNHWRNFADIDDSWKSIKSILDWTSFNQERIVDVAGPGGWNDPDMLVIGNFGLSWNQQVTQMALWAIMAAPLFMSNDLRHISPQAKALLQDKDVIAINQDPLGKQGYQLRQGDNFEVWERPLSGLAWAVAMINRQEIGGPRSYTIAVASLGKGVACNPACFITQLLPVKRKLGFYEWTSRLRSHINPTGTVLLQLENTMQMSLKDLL
In a few lines:
(§1)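 Activity is reported as nmol of free 4-MU released per mg protein per hour (nmol/mg/hr).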

Experiment [2] has as its target T2, α-Gal A mutant form G375A (Homo sapiens, UniProt P06280, G375A).
T2 construct: expressed in transfected cells; host or cells: HEK-293
T2 sequence (P06280 32-429 G375A): T1 sequence (P06280 32-429 D165N) with N134D, G344A
In a few lines:
as §1

Experiment [3] addresses T3, α-Gal A mutant form G411S (Homo sapiens, UniProt P06280, G411S).
T3 construct: expressed in transfected cells; host or cells: HEK-293
T3 sequence (P06280 32-429 G411S): T1 sequence (P06280 32-429 D165N) with N134D, G380S
Summed up:
as §1

Experiment [4] concerns the target T4, α-Gal A mutant form N419D (Homo sapiens, UniProt P06280, N419D).
T4 construct: expressed in transfected cells; host or cells: HEK-293
T4 sequence (P06280 32-429 N419D): T1 sequence (P06280 32-429 D165N) with N134D, N388D
Summed up:
as §1

Experiment [5] has as its target T5, α-Gal A mutant form Y152N (Homo sapiens, UniProt P06280, Y152N).
T5 construct: expressed in transfected cells; host or cells: HEK-293
T5 sequence (P06280 32-429 Y152N): T1 sequence (P06280 32-429 D165N) with Y121N, N134D
Summed up: as §1

[6] abbreviates: 10 μM migalastat minus baseline.
The mark [7] stands for this setting: HEK-293 lysates, 10 μM migalastat 5 days, mean ± SEM.

In the case of `OC[C@H]1NC[C@H](O)[C@@H](O)[C@H]1O` [migalastat, (2R,3S,4R,5S)-2-(hydroxymethyl) piperdine-3,4,5-triol], the “Absolute increase (% WT)” value in experiment [1] (setting [6]) is given as 34 % WT; in experiment [2] (setting [6]), 12 % WT; in experiment [3] (setting [6]) it was 22 % WT; in experiment [4] (setting [6]), 12.6 % WT; in experiment [5] (setting [6]), 25.9 % WT. Moreover, the Relative increase in experiment [1] (10 μM migalastat ÷ baseline) stood at 6.86; in experiment [2] (10 μM migalastat ÷ baseline), 1.23; in experiment [3] (10 μM migalastat ÷ baseline), 1.58; in experiment [4] (10 μM migalastat ÷ baseline), 1.37; in experiment [5] (10 μM migalastat ÷ baseline) it was 1.97. For the same molecule, the “10 μM migalastat α-Gal A activity” value in experiment [1] (setting [7]) came out at 10562 ± 1017 nmol/mg/h; in experiment [2] (setting [7]), 24212 ± 1520 nmol/mg/h; in experiment [3] (setting [7]), 17543 ± 867 nmol/mg/h; in experiment [4] (setting [7]), 14558 ± 678 nmol/mg/h; in experiment [5] (setting [7]), 18554 ± 1297 nmol/mg/h. For the same molecule, the “10 μM migalastat α-Gal A activity (% WT)” value turned out to be 40 ± 2.7 % WT in experiment [1] (setting [7]); 66.8 ± 2.4 % WT in experiment [2] (setting [7]); 61.1 ± 3.2 % WT in experiment [3] (setting [7]); 44.1 ± 2.9 % WT in experiment [4] (setting [7]); 51.6 ± 2.2 % WT in experiment [5] (setting [7]).
